Data taken from US20250320227A1, “MACROCYCLIC OREXIN RECEPTOR AGONISTS AND USES THEREOF” (Jazz Pharmaceuticals Ireland Limited, priority 2022, published 2025).
Read-outs that look alike come from different tables or passages of the source.

Columns and labels:
[1] = biological target: T1, human recombinant OX2 (hOX2) receptors expressed in CHO cells (Homo sapiens, UniProt O43614); experiment: IP-1 accumulation assay (IP-One HTRF) in hOX2-CHO cells; type: cell-based; conditions: 60 min incubation at 37° C., mean of at least two independent experiments, read-out: EC50_OX2R Category
T1 construct: host or cells: CHO cells (hOX2-CHO)
T1 sequence (O43614 1-444): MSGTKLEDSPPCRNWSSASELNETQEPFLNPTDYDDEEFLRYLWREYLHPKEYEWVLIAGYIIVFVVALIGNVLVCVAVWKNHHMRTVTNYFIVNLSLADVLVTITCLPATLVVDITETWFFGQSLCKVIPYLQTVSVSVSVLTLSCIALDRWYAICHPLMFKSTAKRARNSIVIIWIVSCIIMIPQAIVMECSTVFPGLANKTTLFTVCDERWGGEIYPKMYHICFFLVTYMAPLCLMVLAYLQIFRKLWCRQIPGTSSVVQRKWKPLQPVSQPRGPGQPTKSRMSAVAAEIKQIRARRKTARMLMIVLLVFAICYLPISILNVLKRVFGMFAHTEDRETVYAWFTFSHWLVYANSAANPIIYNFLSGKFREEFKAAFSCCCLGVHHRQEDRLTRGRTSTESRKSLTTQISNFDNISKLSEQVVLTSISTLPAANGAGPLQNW
Summary of the method: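 CHO cells in suspension in HBSS/20 mM HEPES pH 7.4 with 50 mM LiCl and 0.1% BSA, given compound (11-point series, 0.5% DMSO) for 60 min at 37 °C. IP-1 read by HTRF ratio, scaled to maximal OX-A response; EC50 from four-parameter fit, mean of ≥2 experiments.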

SMILES | EC50 [1] | other results
C[C@@H]1CC2(COCC(=O)N2)C2COC3CC=C(CC3)c3cccc(F)c3OCC(=O)N21 (some centres unmarked) | – | ring closure, yield of all isomers (from C[C@@H]1CC2(COCC(=O)N2)C(COC2CC=C(c3cccc(F)c3OCC(=O)O)CC2)N1, amide bond, HATU, DIPEA, acetonitrile, 16.9 mM, 3.0 h): 30.1%
O=C1COc2ccccc2[C@H]2CC[C@H](CC2)OCC2C(O)CCCN12 (some centres unmarked) | – | ring closure, yield of all isomers (from O=C(O)COc1ccccc1[C@H]1CC[C@@H](OCC2NCCCC2O)CC1, amide bond, HATU, acetonitrile, 19.25 mM, 3.0 h): 65%
CC1CC(=O)N2CC[C@@]3(COCC(=O)N3)[C@@H]2CO[C@H]2CC[C@H](CC2)c2ccccc2O1 (relative stereo) | – | ring closure, yield of all isomers (from CC(CC(=O)O)Oc1ccccc1[C@H]1CC[C@@H](OC[C@@H]2NCC[C@@]23COCC(=O)N3)CC1, amide bond, HATU/DIPEA, acetonitrile, 3.7 mM, 3.0 h): 45.6%
O=C1COC[C@@]2(CCCN3C(=O)OCCOc4cccc(c4)[C@H]4CC[C@H](CC4)OC[C@H]32)N1 (relative stereo) | – | ring closure, yield of all isomers (from O=C1COC[C@@]2(CCCN(C(=O)OCCCl)[C@H]2CO[C@H]2CC[C@@H](c3cccc(O)c3)CC2)N1, ether bond, Cs2CO3, DMF, 4.02 mM, 60.0 °C, 15.0 h): 11.1%
O=C1COC[C@@]2(CCCN3C(=O)OCCOc4ccccc4-c4cccc(c4F)C[C@H]32)N1 (relative stereo) | – | ring closure, yield of all isomers (from O=C1COC[C@@]2(CCCN[C@H]2Cc2cccc(-c3ccccc3OCCO)c2F)N1, other bond, triphosgene, MeCN, 15.7 mM, 80.0 °C, 20.5 h): 3.6%
O=C1COC[C@@]2(CCN3C(=O)CC(C(F)(F)F)Oc4ccccc4[C@H]4CC[C@H](CC4)OC[C@H]32)N1 (relative stereo) | – | ring closure, yield of all isomers (from O=C(O)CC(Oc1ccccc1[C@H]1CC[C@@H](OC[C@@H]2NCC[C@@]23COCC(=O)N3)CC1)C(F)(F)F, amide bond, HATU/DIPEA, acetonitrile, 3.68 mM, 3.0 h): 54.7%
O=C1COC[C@@]2(CCN3C(=O)CCCOc4ccccc4[C@H]4CC[C@H](CC4)OC[C@H]32)N1 (relative stereo) | – | ring closure, yield of all isomers (from O=C(O)CCCOc1ccccc1[C@H]1CC[C@@H](OC[C@@H]2NCC[C@@]23COCC(=O)N3)CC1, amide bond, HATU/DIPEA, acetonitrile, 2.01 mM, 3.0 h): 54.4%
O=C1COC[C@@]2(CCN3C(=O)CCOc4c(F)cc(F)cc4C4=CCC(CC4)OC[C@H]32)N1 (relative stereo) | – | ring closure, yield of all isomers (from O=C(O)CCOc1c(F)cc(F)cc1C1=CCC(OC[C@@H]2NCC[C@@]23COCC(=O)N3)CC1, amide bond, HATU/DIPEA, acetonitrile, 3.43 mM, 3.0 h): 60.1%
O=C1COC[C@@]2(CCN3C(=O)CCOc4cccc(F)c4[C@H]4CC[C@H](CC4)OC[C@H]32)N1 (relative stereo) | – | ring closure, yield of all isomers (from O=C(O)CCOc1cccc(F)c1[C@H]1CC[C@@H](OC[C@@H]2NCC[C@@]23COCC(=O)N3)CC1, amide bond, HATU/DIPEA, acetonitrile, 5.42 mM, 25.0 °C, 4.0 h): 46.4%
O=C1COC[C@@]2(CCN3C(=O)CCOc4ccccc4[C@H]4CC[C@H](CC4)OC[C@H]32)N1 (relative stereo) | – | ring closure, yield of all isomers (from O=C(O)CCOc1ccccc1[C@H]1CC[C@@H](OC[C@@H]2NCC[C@@]23COCC(=O)N3)CC1, amide bond, HATU/DIPEA, acetonitrile, 1.97 mM, 3.0 h): 92.6%
O=C1N[C@]2(CCN3C(=O)CCOc4ccccc4[C@H]4CC[C@H](CC4)OC[C@H]32)COC1F (relative stereo) | – | ring closure, yield of all isomers (from O=C(O)CCOc1ccccc1[C@H]1CC[C@@H](OC[C@@H]2NCC[C@@]23COC(F)C(=O)N3)CC1, amide bond, HATU/DIPEA, acetonitrile, 3.66 mM, 3.0 h): 46.1%

More lines, main results first:

EC50 [1] | SMILES | other results
1 to 10 µM | C[C@@H]1CC2(COCC(=O)N2)C2Cc3cccc(c3F)-c3ccccc3OCCC(=O)N21 (mixture of isomers) [Example 26, (13′R)-22′-fluoro-13′-methyl-8′-oxa-12′-azaspiro[morpholine-3,15′-tetracyclo[16.3.1.0^2,70.0^12,16]docosane]-1′(22′),2′(7′),3′,5′,18′,20′-hexaene-5,11′-dione] | ring closure, yield of all isomers (from C[C@@H]1CC2(COCC(=O)N2)C(Cc2cccc(-c3ccccc3OCCC(=O)O)c2F)N1, amide bond, HATU, DIPEA, acetonitrile, 0.84 mM, 25.0 °C, 2.5 h): 2.4%
0.1 to 1 µM | C[C@@H]1CC2(COCC(=O)N2)C2Cc3cccc(c3F)-c3ccccc3OCCCC(=O)N21 (mixture of isomers) [Example 27, (14′R)-23′-fluoro-14′-methyl-8′-oxa-13′-azaspiro[morpholine-3,16′-tetracyclo[17.3.1.0^2,70.0^13,17]tricosane]-1′(23′),2′(7′),3′,5′,19′,21′-hexaene-5, 12′-dione] | ring closure, yield of all isomers (from C[C@@H]1CC2(COCC(=O)N2)C(Cc2cccc(-c3ccccc3OCCCC(=O)O)c2F)N1, amide bond, HATU, MeCN, 2.3 mM, 25.0 °C, 2.5 h): 84.9%
0.1 to 1 µM | CC1(C)Oc2ccccc2[C@H]2CC[C@H](CC2)OCC2N(CCCC23COCC(=O)N3)C1=O (stereo partly drawn) [Example 36, Rel-(1′s,3S,16′R,19′s)-9′,9′-dimethyl-8′,18′-dioxa-11′-azaspiro[morpholine-3,15′-tetracyclo[17.2.2.0^2,70.0^11,16]tricosane]-2′(7′),3′,5′-triene-5,10′-dione] | –
< 0.1 µM | O=C1COCC2(CCCN3C(=O)C4(CC4)COc4ccccc4[C@H]4CC[C@H](CC4)OCC32)N1 (stereo partly drawn) [Example 37, Rel-(1′s,16′S,17′R,20's)-dispiro[cyclopropane-1,10′-[8,19]dioxa-[12]azatetracyclo[18.2.2.0^2,70.0^12,17]tetracosane-16′,3″-morpholine]-2′(7′),3′,5′-triene-5″,11′-dione] | –
< 0.1 µM | O=C1COCC2(CCCN3C(=O)COc4ccc(F)cc4[C@H]4CC[C@H](CC4)OCC32)N1 (stereo partly drawn) [Example 41, Rel-(1′s,3S,16′R,19′s)-4′-fluoro-8′,18′-dioxa-11′-azaspiro[morpholine-3,15′-tetracyclo[17.2.2. 0^2,^7.0^11,^16]tricosane]-2′(7′),3′,5′-triene-5,10′-dione] | –
< 0.1 µM | O=C1COCC2(CCCN3C(=O)COc4ncccc4[C@H]4CC[C@H](CC4)OCC32)N1 (stereo partly drawn) [Example 45, Rel-(1′s,3S,16′R,19′s)-8′,18′-dioxa-6′,11′-diazaspiro [morpholine-3,15′-tetracyclo[17.2.2. 0^2,^7.0^11,^16]tricosane]-2′(7′),3′,5′-triene-5,10′-dione] | –
> 10 µM | O=C1COC[C@]2(CCCN3C(=O)COc4ncccc4[C@H]4CC[C@H](CC4)OC[C@@H]32)N1 [Example 45b, (1′s,3R,16′S,19′s)-8′,18′-dioxa-6′,11′-diazaspiro [morpholine-3,15′-tetracyclo[17.2.2. 0^2,^7.0^11,^16]tricosane]-2′(7′),3′,5′-triene-5,10′-dione] | –
< 0.1 µM | Cc1cccc2c1[C@H]1CC[C@H](CC1)OCC1N(CCCC13COCC(=O)N3)C(=O)CO2 (stereo partly drawn) [Example 47, Rel-(1′s,3S,16′R,19′s)-3′-methyl-8′,18′-dioxa-11′-azaspiro[morpholine-3,15′-tetracyclo[17.2.2. 0^2,^7.0^11,^16]tricosane]-2′(7′),3′,5′-triene-5,10′-dione] | –
1 to 10 µM | O=C1COCC2(CCCN3C(=O)COCc4ccccc4[C@H]4CC[C@H](CC4)OCC32)N1 (stereo partly drawn) [Example 55, Rel-(1′s,3S,17′R,20's)-9′,19′-dioxa-12′-azaspiro[morpholine-3,16′-tetracyclo[18.2.2.0^2,70.0^12,17]tetracosane]-2′(7′),3′,5′-triene-5,11′-dione] | –
0.1 to 1 µM | O=C1CCOc2ccccc2[C@H]2CC[C@H](CC2)OCC2N1CCCC21CCCS(=O)(=O)N1 (stereo partly drawn) [Example 60, Rel-(1s, 16R,17R,20s)-8,19-dioxa-12-azaspiro[tetracyclo[18.2.2.0^2,70.0^12,17]tetracosane-16,3′-[1λ^6,2]thiazinane]-2 (7),3,5-triene-1′,1′,11-trione] | –
1 to 10 µM | O=C1COCC2(CCCN3C(=S)COc4ccccc4[C@H]4CC[C@H](CC4)OCC32)N1 (stereo partly drawn) [Example 66, Rel-(1′s,3S,16′R,19′s)-10′-sulfanylidene-8′,18′-dioxa-11′-azaspiro[morpholine-3,15′-tetracyclo[17.2.2.0^2,70.0^11,16]tricosane]-2′(7′),3′,5′-trien-5-one] | –
< 0.1 µM | Cc1ccnc2c1C1CCC(CC1)OCC1N(CCCC13COCC(=O)N3)C(=O)CO2 [Example 77a, (1′s,3S,16′R,19′s)-3′-methyl-8′,18′-dioxa-6′,11′-diazaspiro[morpholine-3,15′-tetracyclo[17.2.2.0^2,70.0^11,16]tricosane]-2′,4′,6′-triene-5,10′-dione] | –
> 10 µM | Cc1ccnc2c1[C@H]1CC[C@H](CC1)OC[C@H]1N(CCC[C@]13COCC(=O)N3)C(=O)CO2 [Example 77b, (1′s,3R,16′S,19′s)-3′-methyl-8′,18′-dioxa-6′, 11′-diazaspiro[morpholine-3,15′-tetracyclo[17.2.2.0^2,70.0^11,16]tricosane]-2′,4′,6′-triene-5,10′-dione] | –
